Measured values as given in patent publication EP3294317B1, “ENHANCED ANTIBIOTIC COMPOSITION” (Universitat Autònoma de Barcelona, priority 2015, dated 2016).

Key:
[1] = tested on: S. maltophilia ATCC 13637; assay: Broth microdilution MIC of other antibiotics with potentiator compounds (Example 2); assay type: cell-based, Stenotrophomonas maltophilia
Protocol: Following the procedure of Example 1, ciprofloxacin, amikacin, levofloxacin, tigecycline, imipenem and the combination trimethoprim/sulfamethoxasole (1:19) were tested. All were purchased from Sigma-Aldrich Co.
(§1) Minimal inhibitory concentration (MIC) of the antibiotic or the test combinations were determined by the broth microdilution method.
(§2) Antibiotic stock solutions were prepared according to CLSI recommendations and sterilizing by passage through 0.20 µm filters.
(§3) Antimicrobial susceptibility testing of these isolates was performed using the broth microdilution (BMD) method, according to CLSI guidelines.
The fold increase in bacterial susceptibility to antibiotics when combined with the potentiator compound (expressed as MIC in the presence of 1.0% DMSO / MIC in the presence of 0.1 mM of each potentiator compound and 1.0% DMSO) are shown in Table 4: […]

A. baumannii 6963 = assay: Broth microdilution MIC of other antibiotics with potentiator compounds, clinical isolates (Example 4); assay type: cell-based, Acinetobacter baumannii; details: MIC in 1.0% DMSO / MIC with 0.1 mM compound and 1.0% DMSO
Protocol: Following the procedure of Example 3, ciprofloxacin, amikacin, levofloxacin, imipenem and the combination trimethoprim/sulfamethoxasole (1:19) were tested. All were purchased from Sigma-Aldrich Co.
as §1, §2, §3
The fold increase in bacterial susceptibility to antibiotics when combined with the potentiator compound (expressed as MIC in the presence of 1.0% DMSO / MIC in the presence of 0.1 mM of each potentiator compound and 1.0% DMSO) are shown in Table 7: […]

[2] = MIC in 1.0% DMSO / MIC with 0.1 mM potentiator compound and 1.0% DMSO

CN(C)CCNC(=O)c1cccc(CNC(=O)Nc2ccc3c(c2)Cc2ccccc2-3)c1 [I, N-[2-(dimethylamino)ethyl]-3-[(9H-fluoren-2-ylcarbamoylamino)methyl]benzamide]
Fold increase in bacterial susceptibility to Amikacin [1, 2]: 4 fold | Fold increase in bacterial susceptibility to Ciprofloxacin [1, 2]: 2 fold | Fold increase in bacterial susceptibility to Levofloxacin [1, 2]: 2 fold | Fold increase in bacterial susceptibility to TMP/SMX ([1]; Trimethoprim:sulfamethoxazole 1:19, MIC in 1.0% DMSO / MIC with 0.1 mM potentiator compound and 1.0% DMSO): 2 fold | Fold increase in bacterial susceptibility to Ciprofloxacin (A. baumannii 6963): Ciprofloxacin (2) Levofloxacin (2) Imipenem (2) fold | Fold increase in bacterial susceptibility to Imipenem (A. baumannii 6963): Ciprofloxacin (2) Levofloxacin (2) Imipenem (2) fold | Fold increase in bacterial susceptibility to Levofloxacin (A. baumannii 6963): Ciprofloxacin (2) Levofloxacin (2) Imipenem (2) fold
